Assay results reported in patent publication US9498451B2, “Method for treating or preventing radiation damage” (Beijing Institute of Transfusion Medicine, Academy of …, priority 2013, dated 2016).
“Also recorded” adds a separate entry of the source.

Legend:
[1] = system: mice radiated by 60Co γ-ray with a lethal dosage; test: Survival rate of mice radiated by 60Co γ ray with a lethal dosage (8.0 Gy) and injected with TA01; assay type: in vivo, mouse (male C57BL/6); details: 8.0 Gy 60Co whole body irradiation, vs control group
Method: 50 male C57BL/6 mice were subjected to whole body irradiation by ^60Co ray with a dosage rate of 1.56 Gy/min and an irradiation dosage of 8.0 Gy. The radiated mice were divided into 5 groups randomly, each group having 10 mice. The 5 groups were injected with TA01 with dosages of 0 mg/kg (control group), 1.25 mg/kg, 2.5 mg/kg, 5 mg/kg and 10 mg/kg, respectively. The injection was performed every three days and continued for 12 days, and the solvent of the injection was a PBS solution. Then, these mice were observed and survival rates of these mice were calculated.
FIG. 2 is a diagram showing survival rates (rates of survival) of mice radiated by ^60Co γ-ray with a lethal dosage and subcutaneously injected with different dosages of TA01.

[2] = system: mice radiated by 60Co γ-ray with a sub-lethal dosage; test: Contents of WBC, RBC and PLT in peripheral blood of mice radiated by 60Co γ-ray with a sub-lethal dosage (6.5 Gy); assay type: in vivo, mouse (male C57); details: 2.5 mg/kg every three days for 5 times, vs PBS group
Method: 10 male C57 mice were subjected to whole body irradiation by ^60Co γ ray with a dosage rate of 1.56 Gy/min and an irradiation dosage of 6.5 Gy. The radiated mice were divided into 2 groups randomly, a PBS group having 5 mice and a TA01 group having 5 mice. Every mouse in the TA01 group was injected with 2.5 mg/kg (body weight) TA01 every three days for 5 times, and the solvent of the injection was a PBS solution. Every mouse in the PBS group was treated with the same process as the TA01 group, with the exception that the injection amount of TA01 was 0, in other words, only the PBS solution was injected. After different days for treating, each group of the mice was subjected to a cutting-tail process to collect 20 μL blood which was subsequently added with 2 mL blood cell dilution (commercially available from Jinan Bolai Biotechnology Co., Ltd).
FIG. 3 is diagrams showing contents of WBC, RBC and PLT in peripheral blood of mice radiated by ^60Co γ-ray with a sub-lethal dosage and injected subcutaneously with TA01 or PBS (control) at different time points.

[3] = system: hemopoietic stem/progenitor cells in bone marrow; test: Number of hemopoietic stem/progenitor cells (CFU, CFU-G, CFU-GM, CFU-MK) in bone marrow of sub-lethally radiated mice; assay type: in vivo, mouse (male C57/BL6); details: 6.5 Gy; 2.5 mg/kg every three days; bone marrow on 7th day, 7 days culture; vs control group
Method: 6 male C57/BL6 mice were subjected to whole body irradiation by ^60Co γ ray with a dosage rate of 1.56 Gy/min and an irradiation dosage of 6.5 Gy. The radiated mice were divided into 2 groups randomly, a PBS group having 3 mice and a TA01 group having 3 mice. Every mouse in the TA01 group was injected with 2.5 mg/kg TA01 (body weight) every three days, the solvent of the injection was a PBS solution with pH from 7.5 to 8.5. TA01 injection dosage for the PBS group was 0, in other words, only the PBS solution was injected. On the 7th day after the subcutaneous injection, bone marrow blood was collected from each mouse into respective 10 mL tubes pretreated with heparin (commercially available from Tianjing Haoyang Biological Product Technology Limited Liability Company). After the bone marrow blood was mixed with the heparin uniformly, fresh PBS (commercially available from Hyclone Company) was added therein up to 5 mL. After mixing, a uniform mixture of blood and PBS was obtained. Mouse lymphocyte separation medium (commercially available from Tianjing Haoyang Biological Product Technology Limited Liability Company) were subjected to pre-aliquot in centrifuge tubes each having 5 mL of the lymphocyte separation medium (operating in a super clean bench). Then the uniform mixture was gently added on the top of the lymphocyte separation medium, after which a centrifuge was performed at 1500 rpm/min for 20 min. The intermediate layer of cells in a white color was sucked into a new 10 mL centrifuge tube, which was then added with PBS up to 10 mL followed by a mixing and centrifuge at 1500 rpm/min for 5 min. Then obtained upper PBS was removed, and the tube was added with fresh PBS up to 10 ml followed by a mixing and centrifuge at 1500 rpm/min for 5 min. Then the upper PBS was removed, and the tube was added with fresh PBS up to 1 mL followed by a mixing, which was then subjected to a cell number counting. After calculating the number of single nucleus per mL blood, the blood was mixed uniformly with 500 μL semisolid medium (including 0.9% methylcellulose, 15% fetal bovine serum, 100 U/ml penicillin/streptomycin, 1 mM sodium pyruvate, 2 mM glutaminate, 2 mM PFHM II, 200 m/ml transferrin, 1% BSA, 0.45 mM MTG, 30% IMDM, 50 ng/ml SCF, 10 ng/ml TPO, 10 ng/ml IL-3, 10 ng/ml IL-11, 10 ng/ml GM-CSF and 3 U/ml EPO), and cultured in an incubator containing 5% CO2 at 37° C. After 7 days, hematopoietic colony-forming unit (CFU), granulocyte colony-forming unit (CFU-G), granulocyte and macrophage colony-forming unit (CFU-GM) and megakaryocyte colony-forming unit (CFU-MK) were counted respectively, and the results were shown in FIG. 4. […]

[4] = system: mice radiated by 60Co γ-ray with a lethal dosage; test: HE staining of intestinal, hepatic and pulmonary tissues of mice radiated by 60Co γ-ray with a lethal dosage (8.0 Gy); assay type: in vivo, mouse (male C57/BL6); details: 2.5 mg/kg every three days, vs PBS group
Method: 6 male C57/BL6 mice were subjected to whole body irradiation by ^60Co γ ray with a dosage rate of 1.56 Gy/min and an irradiation dosage of 8.0 Gy. The radiated mice were divided into 2 groups randomly, a PBS group (control) having 3 mice and a TA01 group having 3 mice. Every mouse in the TA01 group was injected with 2.5 mg/kg TA01 (body weight) every three days, the solvent of the injection was a PBS solution with pH of 7.4. TA01 injection dosage for the PBS group was 0, in other words, only the PBS solution was injected. The mice both two groups were sacrificed by dislocation on the 10th day and the 14th day after the irradiation, respectively. The intestinal, hepatic and pulmonary tissues were collected, fixed with 4% paraformaldehyde and formed into paraffin sections. The paraffin sections were subjected to HE staining, so as to obserse repairing conditions of the intestinal, hepatic and pulmonary tissues, and the results were shown in FIGS. 5 and 6.
FIG. 5 is diagrams showing results of hematoxylin-eosin staining with intestinal tissues of mice radiated by ^60Co γ-ray with a lethal dosage and treated with TA01 or PBS.
FIG. 6 is diagrams showing results of hematoxylin-eosin staining with hepatic and pulmonary tissue of mice radiated by ^60Co γ-ray with a lethal dosage and treated with TA01 or PBS.

CN(C)CCN(CCN(C)C)CCN(C)C [TA01, tris(2-(dimethylamino)ethyl)amine]
survival rate ([1]; TA01 1.25 mg/kg every three days for 5 times): significantly increased | survival rate ([1]; TA01 2.5 mg/kg every three days for 5 times, 2.5 mg/kg): significantly increased; also recorded: best survival rate | survival rate ([1]; TA01 5 mg/kg every three days for 5 times): significantly increased | survival rate ([1]; TA01 10 mg/kg every three days for 5 times): significantly increased | content of WBC in peripheral blood ([2]; on the 4th, 7th and 21st day): significantly increased | content of PLT in peripheral blood ([2]; on the 4th, 14th, 21st and 28th day): significantly increased | content of RBC in peripheral blood ([2]; on the 21st day): most obviously increased | number of CFU-G in bone marrow [3]: increased obviously | number of CFU-GM in bone marrow [3]: increased obviously | number of CFU-MK in bone marrow [3]: increased obviously | number of total colony-forming units (CFU) in bone marrow [3]: increased significantly | repair of intestinal tissue (HE staining) ([4]; 10th and 14th day): improve repairs | repair of hepatic tissue (HE staining) [4]: improve repairs | repair of pulmonary tissue (HE staining) [4]: improve repairs
